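96-well plates; 48 h exposure; 5 concentrations. Endpoints by linear interpolation between flanking doses. Not reached: highest tested concentration assigned. Abbreviation: GI50, concentration required for 50% inhibition of growth. Definition used: TGI = concentration required for complete inhibition of growth.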
Experiments:
Experiment in all cases: growth of human tumour cells (NCI), 48 h
[1] = system: HCT-15 colon
[2] = system: KM12 colon
[3] = system: LOX IMVI melanoma
[4] = system: SF-295 CNS
[5] = system: MOLT-4 leukemia
[6] = system: HS 578T breast
[7] = system: A549 NSCLC
[8] = system: SF-268 CNS
[9] = system: OVCAR-4 ovarian
[10] = system: TK-10 renal
[11] = system: SR leukemia
[12] = system: BT-549 breast
[13] = system: HOP-92 NSCLC
[14] = system: PC-3 prostate
[15] = system: K-562 leukemia
[16] = system: IGROV1 ovarian
[17] = system: UACC-257 melanoma
[18] = system: MCF7 breast
[19] = system: COLO 205 colon
[20] = system: CAKI-1 renal
[21] = system: SN12C renal
[22] = system: HCC-2998 colon
[23] = system: ACHN renal
[24] = system: 786-0 renal
[25] = system: UACC-62 melanoma
[26] = system: OVCAR-3 ovarian
[27] = system: M14 melanoma
[28] = system: SK-MEL-28 melanoma
[29] = system: OVCAR-8 ovarian

SMILES: CCCCCCCCCCCCCC(=O)C(C)N (configuration not stated)
- TGI [1]: 4 µM
- GI50 [2]: 3.71 µM
- TGI [2]: 15.5 µM
- GI50 [3]: 1.88 µM
- TGI [3]: 3.66 µM
- GI50 [4]: 2.88 µM
- TGI [4]: 10 µM
- GI50 [5]: 7.06 µM
- TGI [5]: 23.5 µM
- GI50 [6]: 9.16 µM
- TGI [6]: 29.1 µM
- GI50 [7]: 8.94 µM
- TGI [7]: 22.5 µM
- GI50 [8]: 3.96 µM
- TGI [8]: 16 µM
- GI50 [9]: 3.9 µM
- TGI [9]: 16.1 µM
- GI50 [10]: 3.81 µM
- TGI [10]: 13.2 µM
- GI50 [11]: 2.68 µM
- TGI [11]: 8.47 µM
- GI50 [12]: 15.4 µM
- TGI [12]: 31.1 µM
- GI50 [13]: 5.71 µM
- TGI [13]: 19.2 µM
- GI50 [14]: 2.64 µM
- TGI [14]: 6.05 µM
- GI50 [15]: 2.41 µM
- TGI [15]: 11.1 µM
- GI50 [16]: 3.68 µM
- TGI [16]: 14 µM
- GI50 [17]: 18.6 µM
- TGI [17]: 34.1 µM
- GI50 [18]: 2.13 µM
- TGI [18]: 5.77 µM
- GI50 [19]: 1.95 µM
- TGI [19]: 3.87 µM
- GI50 [20]: 10 µM
- TGI [20]: 22.6 µM
- GI50 [21]: 3.71 µM
- TGI [21]: 13.3 µM
- GI50 [22]: 2.87 µM
- TGI [22]: 8.2 µM
- GI50 [23]: 6.74 µM
- TGI [23]: 20.7 µM
- GI50 [24]: 12.4 µM
- TGI [24]: 26.2 µM
- GI50 [25]: 3.25 µM
- TGI [25]: 10.4 µM
- GI50 [26]: 14.1 µM
- TGI [26]: 28.3 µM
- GI50 [27]: 8.66 µM
- TGI [27]: 22.1 µM
- GI50 [28]: 16.8 µM
- TGI [28]: 32.5 µM
- GI50 [29]: 18.4 µM
- TGI [29]: 36.1 µM

Source: PubChem BioAssay (NCI)
